Data taken from patent US20160270687A1, “System and Method for Quantitative Magnetic Resonance (MR) Analysis Using T1 Mapping” (priority 2013, published 2016).
Peptide text beside a SMILES is read from it. * marks the point of attachment. X1 = O=C(O)CN1CCN(CC(=O)O)CCN(CC(=O)NCCCn2cc(COCC(COCc3cn(CCCNC(=O)CN4CCN(CC(=O)O)CCN(CC(=O)O)CCN(CC(=O)O)CC4)nn3)(COCc3cn(CCCNC(=O)CN4CCN(CC(=O)O)CCN(CC(=O)O)CCN(CC(=O)O)CC4)nn3)NC(=O)CCN3C(=O)CC(*)C3=O)nn2)CCN(CC(=O)O)CC1

Legend:
LN-229 flank tumors = assay: Dynamic quantitative T1 mapping and Gd concentration maps of flank tumors
Experimental: Representative bright-field images of GFP-positive LN-229 flank tumors for animals where 0.2 mmol Gd/kg of Optimark™, scrambled-Tris-(Gd-DOTA)3, or SBK2-Tris-(Gd-DOTA)3 was administered are presented in row 1210 in columns 1202, 1204, and 1206 respectively. GFP fluorescence images of LN-229 tumor cells for each of the three contrast agents are presented in row 1220 in columns 1202, 1204, and 1206 respectively. T2 high resolution images are presented in row 1230 in columns 1202, 1204, and 1206 respectively. T2 low-resolution images with a region of interest (ROI) illustrated by a dashed line are presented in row 1240 in columns 1202, 1204, and 1206 respectively show the tumor area used for T1 map quantification. Axial T1-weighted images of LN-229 flank tumor at baseline or pre-agent (e.g., before injection of contrast agents) are shown in row 1250. Axial T1-weighted images of LN-229 flank tumor at time of maximum contrast (e.g., 15 minutes) following intravenous injection are shown in row 1260.
High-resolution T2-weighted images were obtained for each mouse using a RARE (Rapid Acquisition with Relaxation Enhancement) acquisition (TR/TE=5000/40 ms, 20 slices, resolution=0.117×0.117×0.5 mm) to select the imaging slice for the dynamic T1 mapping acquisition. The dynamic T1 data were then acquired using a snapshot GRE (Gradient Recalled Echo) acquisition with inversion recovery preparation (10 inversion times [263, 775, 1287, 1799, 2311, 2823, 3335, 3847, 4359, and 4871 ms], GRE imaging readout TR/TE=4.0 ms/1.3 ms, flip angle=10 degrees, resolution=0.234×0.234×1 mm, Field of View (FOV)=30×30 mm, and 10 signal averages). The total acquisition time for each T1 mapping scan was 2.5 min. After five baseline/pre-agent T1 mapping scans, Optimark™, the targeted SBK2-Tris-(Gd-DOTA)3 agent, or the non-targeted scrambled-Tris-(Gd-DOTA)3 control was injected at a dose of 0.2 mmol of Gd/kg followed by a 50 μL flush of saline. T1 maps were then consecutively acquired every 2.5 min over 62.5 min.
The MRI data were imported into MATLAB enabling estimation of both pixel-wise T1 relaxation time maps as well as mean intra-tumoral T1 changes using an ROI analysis. The T1 maps were obtained from the T1 mapping acquisition mono-exponential models. To compare the multiple imaging agents, the pre and post-agent T1 maps were then used to calculate maps of percent change in T1, which is directly related to the concentration of each agent within the tumor. To calculate Gd concentrations, T1 relaxivity constants determined at 9.4 T were used along with T1 map values.
As the T1 maps and T2-weighted images were co-registered, the ROI analysis was performed by outlining the ROI on the T2-weighted images. The same ROI was then applied to all of the T1 maps and the average value in the ROI was calculated as a measure of tumor uptake of each imaging agent. Plots of normalized T1 values in the tumor were calculated by dividing the post-agent injection T1 maps by an average of the 5 baseline (pre-agent injection) tumor T1 values. This normalization was performed to limit the effects of variation in the pre-contrast tumor T1 values on the comparison of the molecular imaging agents.
As an imaging marker for contrast agent retention, a slope analysis was performed on the normalized T1 values. Slopes were calculated for Optimark™, scrambled-Tris-(Gd-DOTA)3, and SBK2-Tris-(Gd-DOTA)3 by using all of the mean tumor T1 values from 15 minutes to 60 minutes following agent administration. For each pair of contrast agents, normalized T1 map values at each time point, along with the slopes of post-agent T1 curves were evaluated for statistical significance using a two-tailed Student's t-test, assuming statistical significance at p<0.05.

LN-229 flank tumor = format: in vivo, mice
Experimental: FIG. 8 illustrates that the SBK2 based specific molecular imaging agent improves the enhancement of LN-229 tumors. FIG. 8 illustrates representative T1-weighted axial 2D gradient images of LN-229 flank tumor-bearing mice before (pre-injection) (column 840) and at 1 minute (column 842), 5 minutes (column 844), 10 minutes (column 846), 20 minutes (column 848), and 30 minutes (column 850) after the intravenous injection of ProHance™ (row 810), scrambled Tris-(Gd-DOTA)3 (row 820), or SBK2-Tris-(Gd-DOTA)3 (row 830) at 0.1 mmol Gd/kg. FIG. 8 also illustrates axial 2D gradient images heat map overlays on the tumor to indicate contrast intensity. FIG. 8 illustrates heat maps with overlays for T1-weighted axial 2D gradient images of LN-229 flank tumor-bearing mice before (pre-injection) (column 882) and at 1 minute (column 884), 5 minutes (column 886), 10 minutes (column 888), 20 minutes (column 890), and 30 minutes (column 892) after the intravenous injection of ProHance™ (row 860), scrambled Tris-(Gd-DOTA)3 (row 870), or SBK2-Tris-(Gd-DOTA)3 (row 880) at 0.1 mmol Gd/kg.
The SBK2 based specific molecular imaging agent was developed as a diagnostic imaging tool. To function as an imaging tool, SBK2 was conjugated to a Gd chelate [SBK2-Tris-(Gd-DOTA)3] to generate an MR-detectable molecular imaging agent. The ability of SBK2-Tris-(Gd-DOTA)3 to function as a contrast agent was compared to a macrocyclic gadolinium chelate (Gadoteridol, ProHance™) and to a scrambled molecular imaging agent linked to gadolinium [scrambled Tris-(Gd-DOTA)3]. SBK2-Tris-(Gd-DOTA)3 labeled human glioma tumors with a high level of contrast persisting for two hours. […] SBK2-Tris-(Gd-DOTA)3 labeling of PTPμ extracellular fragment retained in the tumor microenvironment is a more specific MR molecular imaging agent than a nonspecific gadolinium chelate.
FIG. 9 illustrates quantitation of LN-229 flank tumor enhancement following administration of control or targeted contrast agents in xenograft mice. Graphs 900 and 910 illustrate dose-response plots of LN-229 flank tumor contrast to noise ratio (CNR) with ProHance™ or SBK2-Tris-(Gd-DOTA)3 respectively administered at 0.03 mmol Gd/kg or 0.1 mmol Gd/kg.
Data is shown as means±SEM. […] At 60 to 120 minutes post-injection, the ProHance™ cleared more rapidly than SBK2-Tris-(Gd-DOTA)3 resulting in greater than 110% increase in SBK2-Tris-(Gd-DOTA)3 tumor CNR compared with ProHance™ (P<0.001). The SBK2-Tris-(Gd-DOTA)3 tumor CNR was approximately 53% greater than the scrambled Tris-(Gd-DOTA)3 tumor CNR at 60 to 90 minutes (P<0.001).

[1] = tested on: orthotopic Gli36Δ5 glioma tumors; assay: Quantitative T1 mapping of orthotopic brain tumors with Optimark; details: for time of peak contrast following the injection: 0.1 mmol/kg
Source text: This is because T1 mapping is a quantitative MR imaging method that yields the absolute T1 relaxation values as opposed to the relative signal intensity values in T1-weighted images.
High-resolution T2-weighted MR images were acquired to localize the tumor and enable identification of the largest cross-section of tumor on MRI.
Graph 2300 illustrates mean Gd concentrations in the tumor before and after intravenous administration of 0.1 (line 2310) or 0.2 mmol/kg (line 2320) Optimark™ in cohorts of nu/nu athymic mice bearing orthotopic glioma tumors. Data is plotted as means+/−standard error. The mean tumor Gd concentration was measured at baseline or pre-agent and after contrast agent injection was measured every 2.5 minutes for 30 minutes.

In the case of “C-GFTQPETGTDNDLWSVDNEK [scrambled, reference compound]”, the “time after peak within which contrast agent concentration begins to diminish” value (“time … to diminish” for short) (LN-229 flank tumors; mouse, in vivo) was “thirty”.

With C-GEGDDFNWEQVNTLTKPTSD [SBK2] the “time contrast agent concentration remains at peak levels” value (LN-229 flank tumors; mouse, in vivo) was “at least sixty” and the “retention time of the agent in the sample / glioblastoma” value (LN-229 flank tumor; mouse, in vivo) was “up to two”.

For `COCCNC(=O)CN(CCN(CCN(CC(=O)[O-])CC(=O)NCCOC)CC(=O)[O-])CC(=O)[O-].[Gd+3]` [Optimark™, gadoversetamide], the “time … to diminish” value (LN-229 flank tumors; mouse, in vivo) was “thirty”, the “time of peak enhancement in the tumors (mean normalized T1)” value ([1]; 0.1 mmol/kg dose) was 5 min and the “change in normalized T1 values” ([1]; 0.1 mmol/kg dose, 5 minutes) was “modest decrease”. The “distinction between T1 value of normal brain and tumor” value ([1]; 0.1 mmol/kg dose, 30 minutes) was “no distinction”, the “time of peak contrast following the injection” value ([1]; T1-weighted FLASH images) was “five” and the “time of peak contrast following the injection” value ([1]; snapshot GRE images, T1 maps, Gd concentration maps) was “two and a half”. For the same molecule, the “time of peak enhancement in the tumors (mean normalized T1)” value ([1]; 0.2 mmol/kg dose) was 5 min, the “change in normalized T1 values compared to 0.1 mmol/kg” value ([1]; 0.2 mmol/kg dose, 5 minutes) was “larger decrease” and the “distinction between normalized T1 values of normal brain and tumor” value ([1]; 0.2 mmol/kg dose, 30 minutes) was “weak distinction”.

With `CC(O)CN1CCN(CC(=O)[O-])CCN(CC(=O)[O-])CCN(CC(=O)[O-])CC1.[Gd+3]` (centres unmarked) [Prohance™, gadoteridol, reference compound] the “time … to diminish” value (LN-229 flank tumors; mouse, in vivo) was “thirty”.

With `CC(C)C[C@H](NC(=O)[C@@H](NC(=O)[C@H](CC(N)=O)NC(=O)[C@@H](NC(=O)[C@H](CCC(N)=O)NC(=O)[C@H](CCC(=O)O)NC(=O)[C@H](Cc1c[nH]c2ccccc12)NC(=O)[C@H](CC(N)=O)NC(=O)[C@H](Cc1ccccc1)NC(=O)[C@H](CC(=O)O)NC(=O)[C@H](CC(=O)O)NC(=O)CNC(=O)[C@H](CCC(=O)O)NC(=O)CNC(=O)[C@@H](N)CSC1CC(=O)N(CCC(=O)NC(COCc2cn(CCCNC(=O)CN3CCN(CC(=O)O)CCN(CC(=O)O)CCN(CC(=O)O)CC3)nn2)(COCc2cn(CCCNC(=O)CN3CCN(CC(=O)O)CCN(CC(=O)O)CCN(CC(=O)O)CC3)nn2)COCc2cn(CCCNC(=O)CN3CCN(CC(=O)O)CCN(CC(=O)O)CCN(CC(=O)O)CC3)nn2)C1=O)C(C)C)[C@@H](C)O)C(=O)N[C@H](C(=O)N[C@@H](CCCCN)C(=O)N1CCC[C@H]1C(=O)N[C@H](C(=O)N[C@@H](CO)C(=O)N[C@@H](CC(=O)O)C(=O)O)[C@@H](C)O)[C@@H](C)O` (some centres unmarked) [SBK2-Tris-(Gd-DOTA)3] (H-C(X1)GEGDDFNWEQVNTLTKPTSD-OH; N-terminus and C-terminus assumed) the “Gd concentration in tumor at 60 minutes” value (LN-229 flank tumors; 0.2 mmol Gd/kg) was “remains at near peak levels”, the “retention judged from slope of mean tumor normalized T1 values” (LN-229 flank tumors; 0.2 mmol Gd/kg, measured every 2.5 minutes for 62.5 minutes) was “highest retention” and the “distribution of T1 changes in the tumor” value (LN-229 flank tumors; 30 minutes and 60 minutes, larger tumors) was “uniformly distributed throughout the tumor”. For the same molecule, the “time the agent remains in the tumor” value (LN-229 flank tumors; compared with non-specific molecular imaging agents) was 1 h, the “non-specific uptake compared with scrambled-Tris-(Gd-DOTA)3” value (LN-229 flank tumors; mouse, in vivo) was “nearly identical non-specific uptake” and the “concentration accumulated in tumor relative to scrambled-Tris-(Gd-DOTA)3” value (LN-229 flank tumors; tumors containing the PTPμ fragment) was “about twice”. For the same molecule, the “increase in tumor CNR over scrambled Tris-(Gd-DOTA)3 or ProHance” value (LN-229 flank tumor; 15 to 45 minutes post-injection, 0.1 mmol Gd/kg intravenous, P<0.001) was about 55%, the “tumor CNR greater than the scrambled Tris-(Gd-DOTA)3 tumor CNR” value (LN-229 flank tumor; 60 to 90 minutes, 0.1 mmol Gd/kg intravenous, P<0.001) was “approximately 53%” and the “increase in tumor CNR compared with ProHance” value (LN-229 flank tumor; 60 to 120 minutes post-injection, 0.1 mmol Gd/kg intravenous, P<0.001) was “greater than 110%”. The “contrast enhancement compared with ProHance alone” value (LN-229 flank tumor; mouse, in vivo) was “significantly higher”.
